Test results taken from patent publication US20240108610A1, “RECTAL ADMINISTRATION OF ROFLUMILAST FOR THE TREATMENT OF CROHN'S DISEASE” (King Abdulaziz University, priority 2022, published 2024).

System: GSH
Experiment: Colonic GSH in colonic tissue homogenates, TNBS-induced colitis
Type: in vivo, rat
Conditions: oral, once daily for 15 days; SS 500 mg/kg, OR 5 mg/kg; means±SE, n = 8
Procedure: Chronic colitis was induced by weekly rectal injections of increasing doses of TNBS over 6 weeks (15, 30, 45, 60, 60, and 60 mg from day 0 to day 35), as previously described (4,12). Briefly, after food deprivation for 24 h, rats were anesthetized with an intraperitoneal injection of 1% isoflurane. TNBS was dissolved in ethanol (50%) and instilled into the colon using a cannula (0.25 mL), and then the rats were held upside down for 3 min to prevent escape of the intracolonic TNBS. Roflumilast was dissolved in dimethyl sulfoxide and diluted in 0.5% carboxymethyl cellulose sodium to a final concentration of 5.0 mg·kg^−1·day^−1 as previously described (13). Five groups of rats (n=8) were established: normal control (NC group), TNBS-treated (TNBS group, positive control), and three TNBS-treated groups that received oral sulfasalazine (SS group, 500 mg/kg) (14), oral roflumilast (by gastric gavage, OR group, 5 mg/kg), or rectal roflumilast (RR group, 5 mg/kg). […] At the end of the treatment period, the rats were evaluated with the colitis activity score. […] At the end of the 15-day treatment period, the rats were sacrificed by cervical dislocation, and the colon was isolated, cleaned of feces, and measured for weight and length. Colonic myeloperoxidase (MPO) activity and glutathione (GSH) and malonaldehyde (MDA) levels were measured. […]

With `O=C(O)c1cc(/N=N/c2ccc(S(=O)(=O)Nc3ccccn3)cc2)ccc1O` [sulfasalazine] the “colonic level of GSH” value was 14.73 ± 0.49^h, i mmol/mg.
